Experimental data as given in PubChem BioAssay (NCI).
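Cultured in 96-well plates, cells were exposed to test compound for 48 hours across five concentrations. The concentration for full growth arrest is given as TGI.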

Assays:
Assay in all cases: DTP human tumour cell line panel, 48 h
[1] = test system: HOP-62 NSCLC
[2] = test system: DU-145 prostate
[3] = test system: OVCAR-5 ovarian
[4] = test system: HCT-15 colon
[5] = test system: SK-MEL-2 melanoma
[6] = test system: NCI-H23 lung
[7] = test system: ACHN renal
[8] = test system: NCI-H460 lung
[9] = test system: M14 melanoma
[10] = test system: HCT-116 colon

Structure (SMILES)	TGI [1]	TGI [2]	TGI [3]	TGI [4]	TGI [5]	TGI [6]	TGI [7]	TGI [8]	TGI [9]	TGI [10]
CC(C)[Si](Oc1ccc(CC2N(C(=O)c3ccc([N+](=O)[O-])cc3)C(CCc3ccccc3)CC2(C)C=O)cc1)(C(C)C)C(C)C (stereo unspecified)	31.5 µM	> 100 µM	> 100 µM	> 100 µM	> 100 µM	> 100 µM	> 100 µM			
S=C1NNC2(C(=S)N1)c1ccccc1-c1ccccc12	> 10 µM	> 10 µM		> 10 µM		> 10 µM		> 10 µM	> 10 µM	
CC(C)C(CCOS(=O)(=O)O)CCC(C)[C@H]1[C@@H](O)C(O)C2[C@]3(O)C[C@@H](O)C4(O)C[C@@H](O)CC[C@]4(C)C3CC[C@@]21C (stereo partly specified)	> 100 µM			> 100 µM	> 100 µM	> 100 µM	> 100 µM	> 100 µM	> 100 µM	> 100 µM
CCOc1cc2c(cc1O)C(=O)C[C@@H]1[C@@H]2CC[C@]2(C)[C@@H](O)CC[C@@H]12	> 100 µM	> 51.9 µM	> 100 µM	29.3 µM	> 58.1 µM	43.7 µM	> 100 µM	12.4 µM	> 38.9 µM	38 µM
COC(=O)C1Cc2cc3c(cc2C1)CCC3	> 100 µM	> 100 µM	> 100 µM	> 100 µM	> 100 µM	> 100 µM	> 100 µM	> 100 µM	> 100 µM	> 100 µM
O=C1N[C@H](C(=O)O)[C@@H](c2ccc(OCc3ccccc3)cc2)O1	33.2 µM	> 100 µM	> 100 µM	> 100 µM	> 100 µM	> 100 µM	> 100 µM		> 100 µM	> 100 µM
CC(C)C(=O)/C=C/c1c(Cl)cccc1Cl	17.7 µM	11.8 µM	11.3 µM	17.8 µM	7.99 µM	7.24 µM	16.2 µM	5.68 µM	6.69 µM	5.83 µM
C=CCOCn1cnc2c(=O)[nH]c(N)nc21	> 100 µM	> 100 µM	> 100 µM	> 100 µM	> 100 µM	> 100 µM	> 100 µM	> 100 µM	> 100 µM	> 100 µM
CCN(/N=C1\CC2C=CCN(C2)C(=O)Cc2c1[nH]c1ccccc21)S(=O)(=O)c1ccc(C)cc1 (stereo unspecified)				> 100 µM	> 100 µM	> 100 µM	> 100 µM			> 100 µM
Cc1ccc(-c2cc(=O)c(=O)[nH][nH]2)cc1	> 100 µM	> 100 µM	> 100 µM	> 100 µM	> 100 µM	> 100 µM	> 100 µM	> 100 µM	> 100 µM	> 100 µM
O=C(CCCn1ccnc1[N+](=O)[O-])NCCn1cnc([N+](=O)[O-])n1	> 100 µM	> 100 µM	> 100 µM	> 100 µM	> 100 µM	> 100 µM	> 100 µM	> 100 µM	> 100 µM	> 100 µM
CN(C)NC1=NS(=O)(=O)c2cc3c(=O)n(C)[nH]c3cc2S1	> 10 µM	> 10 µM	> 10 µM	> 10 µM	> 10 µM	> 10 µM	> 10 µM	> 10 µM	> 10 µM	> 10 µM
OCC1OC(n2cnc3c(Cl)nc(Nc4ccc(Cl)c(Cl)c4)nc32)CC1O (stereo unspecified)	23 µM	48.6 µM	> 50 µM	21.7 µM	19.2 µM	22.6 µM	19.9 µM	16.8 µM	32 µM	28.9 µM
Cn1c(=S)[nH]c(N)c(Cc2ccccc2)c1=O	> 100 µM	> 100 µM	> 100 µM	> 100 µM	> 100 µM	> 100 µM	> 100 µM	> 100 µM	> 100 µM	> 100 µM
CN(Cc1cnc2nc(N)nc(N)c2n1)c1ccc(C(=O)NCCCC(=O)O)cc1	> 100 µM	> 100 µM	> 100 µM	> 100 µM	> 100 µM	> 100 µM	> 71.2 µM	> 100 µM	> 100 µM	> 100 µM
CC1CC(=O)Nc2ccccc2N1C(=O)C1CC1 (stereo unspecified)	> 100 µM	> 100 µM	> 100 µM	> 100 µM	> 100 µM	> 100 µM	> 100 µM	> 100 µM	> 100 µM	> 100 µM
Nc1ccc(C2SCC(=O)N2NS(=O)(=O)c2cccc(C(=O)O)c2)cc1 (stereo unspecified)	> 100 µM	> 100 µM	> 100 µM	> 100 µM	> 100 µM	> 100 µM	> 100 µM	> 100 µM	> 100 µM	> 100 µM
CN1CCN(c2n[nH]c(=O)c3c2nnn3C2CCCCC2)CC1	> 100 µM	> 100 µM	> 100 µM	> 100 µM	> 100 µM	> 100 µM	> 100 µM	> 100 µM	> 100 µM	> 100 µM
CCOC(=O)CC1Nc2ccccc2C12CCc1c([nH]c3ccccc13)C2C(=O)OCC (stereo unspecified)	> 100 µM	> 100 µM	> 100 µM	> 100 µM	> 100 µM	> 100 µM	> 100 µM	> 100 µM	> 100 µM	> 100 µM
COc1ccc(/C=C/C(=O)CCN2CCN(CCC(=O)/C=C/c3ccc(OC)cc3)CC2)cc1	49.7 µM	71.1 µM	35.3 µM	22.3 µM	42 µM	30.1 µM	27.2 µM	23.1 µM	32.5 µM	11.1 µM
Cc1cc(N=Cc2c(CO)cnc(C)c2O)c(N=Cc2c(CO)cnc(C)c2O)cc1C	> 100 µM	> 100 µM	> 100 µM	> 100 µM		> 100 µM	> 100 µM	> 100 µM	> 100 µM	> 100 µM
CC#CC#C/C=C1\C=CC2(OC=CC2O)O1 (stereo unspecified)	> 23.3 µM		11.8 µM	> 23.3 µM	> 23.3 µM	> 23.3 µM	> 23.3 µM	> 23.3 µM	> 23.3 µM	22.9 µM
C/C(CCN(C)C)=N\OC(=O)c1ccccc1	> 100 µM		> 100 µM		> 100 µM	> 100 µM	> 100 µM	> 100 µM	> 100 µM	> 100 µM
